According to ChEMBL document CHEMBL4819151, “Synthesis, optimization, in vitro and in vivo study of bicyclic substituted amine as MenA inhibitor” (Bioorg Med Chem Lett, 2021):
pIC50: −log10 of the molar value. Values after ≈ are worked out from the molar mass of the structure shown. Active and inactive are the calls of the source. The calls are words filed in the database; no cut-off is given here.

How the values were obtained:
[1] = tested on: Mycobacterium tuberculosis; experiment: Antitubercular activity against Mycobacterium tuberculosis H37Ra assessed as bacterial growth inhibition in the presence of 7H10/OADC medium; format: functional
Staphylococcus aureus [2] = experiment: Antibacterial activity against methicillin-resistant Staphylococcus aureus USA300 assessed as bacterial growth inhibition measured by two-fold serial microdilution method; format: functional
[3] = molecular target: T1, 1,4-dihydroxy-2-naphthoate octaprenyltransferase (Mycobacterium tuberculosis, UniProt P9WIP3); experiment: Inhibition of Mycobacterium tuberculosis MenA
T1 sequence (P9WIP3 whole entry): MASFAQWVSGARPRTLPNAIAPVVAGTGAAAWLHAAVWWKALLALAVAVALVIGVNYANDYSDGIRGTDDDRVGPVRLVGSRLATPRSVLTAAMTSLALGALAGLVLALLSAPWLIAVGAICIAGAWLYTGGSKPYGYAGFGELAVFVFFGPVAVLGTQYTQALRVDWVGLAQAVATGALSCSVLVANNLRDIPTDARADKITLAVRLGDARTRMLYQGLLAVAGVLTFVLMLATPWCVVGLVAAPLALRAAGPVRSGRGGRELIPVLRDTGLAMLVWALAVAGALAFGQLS

Staphylococcus aureus [4] = experiment: Antibacterial activity against methicillin-resistant Staphylococcus aureus USA300 assessed as bacterial growth inhibition in CAMH medium measured by two-fold serial microdilution method; format: functional
Staphylococcus aureus [5] = experiment: Antibacterial activity against methicillin-resistant Staphylococcus aureus USA300 assessed as bacterial growth inhibition at 8 ug/ml measured by two-fold serial microdilution method; format: functional, organism-based; conditions: dose 8.0 µg/ml
Staphylococcus aureus [6] = experiment: Bactericidal activity against methicillin-resistant Staphylococcus aureus USA300 assessed as log10 reduction in microbial growth at 8 ug/ml in presence of menaquinone, MK4 measured after 8 hrs by time kill assay curve based analysis; format: functional; conditions: dose 8 µg/ml
Staphylococcus aureus [7] = experiment: Antibacterial activity against methicillin-resistant Staphylococcus aureus USA300 infected in Caenorhabditis elegans N2 worms assessed as worms killing at 25 ug/ml measured after 4 days; format: functional; conditions: dose 25 µg/ml; time 4 day
Staphylococcus aureus [8] = experiment: Bactericidal activity against methicillin-resistant Staphylococcus aureus USA300 at 16 ug/ml measured for 48 hrs in presence of menaquinone, MK4 by time kill assay curve based analysis; format: functional; conditions: dose 16 µg/ml
Staphylococcus aureus [9] = experiment: Antibacterial activity against methicillin-resistant Staphylococcus aureus USA300 infected in Caenorhabditis elegans N2 worms assessed as worms killing at 5 ug/ml measured after 4 days; format: functional; conditions: dose 5 µg/ml; time 4 day
Staphylococcus aureus [10] = experiment: Bactericidal activity against methicillin-resistant Staphylococcus aureus USA300 assessed as eradication in population size at 8 to 16 ug/ml measured after 2 hrs by time kill assay curve based analysis; format: functional, organism-based; conditions: dose 8-16 µg/ml
Staphylococcus aureus [11] = experiment: Antibacterial activity against methicillin-resistant Staphylococcus aureus USA300 assessed as bacterial growth inhibition at 8 ug/ml incubated for 24 hrs in presence 100 ug/ml of menaquinone, MK4 measured by two-fold serial microdilution method; format: functional, organism-based; conditions: dose 8.0 µg/ml
[12] = tested on: Mycobacterium tuberculosis; experiment: Antitubercular activity against Mycobacterium tuberculosis H37Rv; format: functional
[13] = molecular target: T1, 1,4-dihydroxy-2-naphthoate octaprenyltransferase; experiment: Competitive inhibition of Mycobacterium tuberculosis H37Rv membrane MenA using DHNA as a substrate in presence of [1-3H]FPP or [1-3H]GGPP; format: cell membranes
Staphylococcus aureus [14] = experiment: Antibacterial activity against methicillin-resistant Staphylococcus aureus USA300 infected in Caenorhabditis elegans N2 worms assessed as worms survival at 25 ug/ml measured after 4 days; format: functional; conditions: dose 25 µg/ml; time 4 day
Staphylococcus aureus [15] = experiment: Antibacterial activity against methicillin-resistant Staphylococcus aureus USA300 infected in Caenorhabditis elegans N2 worms assessed as worms survival at 5 ug/ml measured after 4 days; format: functional; conditions: dose 5 µg/ml; time 4 day
[16] = Toxicity in Balb/cJ mouse assessed as body weight loss at 200 ug INH administered for 4 days and observed on day 5; conditions: in vivo, inhaled_or_intranasal, 120 h, dose 200 µg, time 5 day
[17] = Toxicity in Balb/cJ mouse assessed as effect on lung damage at 10 mg/kg, INH administered for 4 days and measured on day 5 by H and E staining microscopic analysis; format: organism-based; conditions: in vivo, inhaled_or_intranasal, 120 h, time 5 day
[18] = Toxicity in Balb/cJ mouse assessed as effect on lung inflammation at 10 mg/kg, INH administered for 4 days and measured on day 5 by H and E staining microscopic analysis; format: organism-based; conditions: in vivo, inhaled_or_intranasal, 120 h, time 5 day
[19] = Toxicity in Balb/cJ mouse assessed as drug tolerability at 200 ug INH administered for 4 days; conditions: in vivo, inhaled_or_intranasal, 96 h, at 200 µg, time 4 day
[20] = Drug uptake in Balb/cJ mouse lungs at 200 ug INH administered for 4 days and measured on day 5 by reverse-phase HPLC analysis; format: ADME, tissue-based, Lung; conditions: in vivo, 120 h, at 200 µg, time 5 day

Fc1ccc(CCNCCCCCCCCNCCc2ccc(F)cc2)cc1
MIC [1]: 32 µg/mL
MIC (Staphylococcus aureus [2]): 16 µg/mL (≈ 41.2 µM)

CC(C)=CCC/C(C)=C/CNC1CCCC1
MIC [1]: 64 µg/mL
MIC (Staphylococcus aureus [2]): 128 µg/mL (≈ 578 µM)

COc1ccc2ccc(OCCCCCCCCOCC=C(C)C)cc2c1
MIC (Staphylococcus aureus [2]): > 256 µg/mL

O=[N+]([O-])c1ccc(OCCCCCCCCOc2ccc([N+](=O)[O-])cc2)cc1
MIC (Staphylococcus aureus [2]): 64 µg/mL (≈ 165 µM)

COc1ccc2ccc(OCCCCCCCCN3CCCCC3)cc2c1
pIC50 [3]: 4.87
Activity (Staphylococcus aureus [4]): 16 µg/mL

CC(C)=CCC/C(C)=C/CN1CCCCC1
MIC (Staphylococcus aureus [2]): 64 µg/mL (≈ 289 µM)

CC(C)=CCC/C(C)=C/CC/C(C)=C/CNCCc1ccc(F)cc1
Activity (Staphylococcus aureus [5]): Active
Activity (Staphylococcus aureus [6]): 3.5 log10CFU/ml
MIC [1]: 4 µg/mL
Activity (Staphylococcus aureus [7]): 100%
Activity (Staphylococcus aureus [8]): 100%
Activity (Staphylococcus aureus [9]): 83%
Activity (Staphylococcus aureus [10]): Active
MIC (Staphylococcus aureus [2]): 8 µg/mL (≈ 23.3 µM)
Activity (Staphylococcus aureus [11]): inactive

C=CCN(C)C/C=C(\C)CC/C=C(\C)CCC=C(C)C
MIC [12]: 6.1 µg/mL (≈ 22.1 µM)
pIC50 [13]: 4.70

Fc1ccc(CCNCCCOc2ccc3ccc(OCCCNCCc4ccc(F)cc4)cc3c2)cc1
Activity (Staphylococcus aureus [14]): 78%
Activity (Staphylococcus aureus [15]): 71%
Activity (Staphylococcus aureus [4]): 3 µg/mL

CC(C)=CCC/C(C)=C/CC/C(C)=C/CNC1CC1
MIC (Staphylococcus aureus [2]): 16 µg/mL (≈ 61.2 µM)

CC(C)=CCC/C(C)=C/CC/C(C)=C/CN1CCCCC1
MIC [1]: 8 µg/mL
MIC (Staphylococcus aureus [2]): 32 µg/mL (≈ 111 µM)

CC(C)=CCC/C(C)=C/CC/C(C)=C/COC(=O)C(N)CC(=O)O (stereo not given)
MIC [12]: 12.5 µg/mL (≈ 37 µM)
pIC50 [13]: 5.27

C=CCN(C)CCCCCCCCOc1ccc2ccc(OC)cc2c1
Activity [16]: Non-Toxic
Activity [17]: Non-Toxic
Activity [18]: Non-Toxic
pIC50 [3]: 4.77
Activity [19]: 100%
Drug uptake [20]: 32.4%
Activity (Staphylococcus aureus [2]): Active
Activity (Staphylococcus aureus [4]): 16 µg/mL

CC(C)=CCC/C(C)=C/CNCCc1ccc(F)cc1
MIC (Staphylococcus aureus [2]): 32 µg/mL (≈ 116 µM)

Fc1ccc(CNCCCCCCCCNCc2ccc(F)cc2)cc1
MIC (Staphylococcus aureus [2]): 64 µg/mL (≈ 178 µM)

COc1ccc2ccc(OCCCOCC=C(C)C)cc2c1
MIC (Staphylococcus aureus [2]): > 256 µg/mL

CC(=O)NC[C@H]1CN(c2ccc(N3CCOCC3)c(F)c2)C(=O)O1 [LINEZOLID]
MIC (Staphylococcus aureus [2]): 1 µg/mL (≈ 2.96 µM)

CC(C)=CCC/C(C)=C/CC/C(C)=C/CNC1CCCC1
MIC (Staphylococcus aureus [2]): 16 µg/mL (≈ 55.3 µM)

CC(C)=CCC/C(C)=C/CNC1CC1
MIC [1]: > 128 µg/mL
MIC (Staphylococcus aureus [2]): > 128 µg/mL

O=[N+]([O-])c1ccc(OCCCCCCCCNCCc2ccc(F)cc2)cc1
MIC [1]: 16 µg/mL
MIC (Staphylococcus aureus [2]): 8 µg/mL (≈ 20.6 µM)
